Results published in US20060003410A1, “Prostaglandin reductase” (priority 2004, published 2006).

Key:
[1] = target: T1, recombinant mouse PGR-2 protein (Mus musculus, UniProt Q8VDQ1); test: Substrate specificity of PGR-2 (NADPH consumption, absorbance at 490 nm); format: biochemical; details: 10 μg recombinant mouse PGR-2, 0.5 mM NADPH, substrate replacing 15-keto PGE2, 37° C., 10 minutes
T1 construct: The coding region of PGR-2 open reading frame was then subcloned to the expression vector pCMV-Tag2B; GST (N); made in house; host or cells: E. coli (pGEX-4T-3 vector)
Procedure: (§1) Mouse PGR-2 was recombinantly expressed in E.coli as a GST fusion protein following standard procedures. The recombinant PGR-2 protein thus obtained was used to determine substrate specificity and enzymatic kinetics.
(§2) Enzymatic activity was determined as follows. 10 μg of the recombinant mouse PGR-2 protein was incubated at 37° C. in a reaction buffer containing 0.1M Tris-HCl (pH7.4), 0.5 mM NADPH, and 0.57 mM 15-keto PGE2. The reaction was conducted at 37° C. in the dark for 10 minutes and terminated by adding 700 μl of a buffer which contained 50 mM potassium hydrogen phthalate, pH 3.0, and 1% Tween 20. 200 μl of a color development reagent, which contained 790 μM indonitrotetrazolium chloride, 60 μM phenazene methosulfate, and 1% Tween 20, was added to oxidize any unreacted NADPH. Absorbance at 490 nm was measured by an ELISA plate reader. A standard curve was generated using reaction buffers containing serially diluted amounts of NADPH.
Substrate specificity of PGR-2 was determined using the just-described procedure, except that 15-keto PGE2 was replaced with each of six prostaglandin substrates, each of three downstream metabolites, or leukotriene B4.

endogenous PPAR = test: Reporter gene assay of endogenous PPAR activity in differentiating 3T3-L1 cells; format: cell-based, mouse; details: 3T3-L1 cells induced to differentiate for two days, transfected with a reporter gene
Procedure: (§3) The effect of prostaglandin on PPAR-gamma activity in adipocytes was investigated. After treatment with a medium that induces cell differentiation, 3T3-L1 cells were treated from day 2 to 4 during adipogenesis with 14 μM 15-keto PGE2, 13,14-dihydro-15-keto PGE2 , 15-keto PGF2α, 13,14-dihydro-15-keto PGF2α, or 4.5 μm of BRL49653, a PPAR-gamma agonist. See Forman et al., Cell (1995) 83:803-812. At day 6, aggregates of lipid droplets were stained with oil-red O for observation. […] After being induced to differentiate for two days, the 3T3-L1 cells were transfected with a reporter gene.

3T3-L1 cells [2] = test: Protein expression of adipogenesis-specific, PPAR-gamma target genes in 3T3-L1 cells; format: cell-based, mouse; details: for IRS-1 protein expression: 3T3-L1 cells
Description: Also examined was the ability of 15-keto PGE2 to induce protein expression of adipogenesis-specific, PPAR-gamma target genes, i.e., IRS-1 and -2.

3T3-L1 cells [3] = test: Adipogenesis in 3T3-L1 cells, lipid droplets stained with oil-red O; format: cell-based, mouse; details: 14 μM, treated day 2 to 4 during adipogenesis, stained at day 6
Procedure: as §3

[4] = target: T1, recombinant mouse PGR-2 protein; test: Kinetics studies of PGR-2 catalyzed conversion; format: biochemical; details: order: 15-keto PGE2, then 15-keto PGF1α, 15-keto PGE1, 15-keto PGF2α
Procedure: as §1, §2
Unlike PGR/LTB4DH, PGR-2 used NADPH as a cofactor much more efficiently than NADH.

PPAR-alpha = target: T2, PPAR-alpha (Homo sapiens, UniProt Q07869); test: Luciferase reporter with PPAR-alpha ligand-binding domain fused to yeast GAL4 DNA-binding domain in 3T3-L1 cells; format: cell-based; details: compared with PPAR-gamma
T2 construct: expressed in transfected cells; host or cells: 3T3-L1 cells
T2 sequence (Q07869 239-466 limits assumed): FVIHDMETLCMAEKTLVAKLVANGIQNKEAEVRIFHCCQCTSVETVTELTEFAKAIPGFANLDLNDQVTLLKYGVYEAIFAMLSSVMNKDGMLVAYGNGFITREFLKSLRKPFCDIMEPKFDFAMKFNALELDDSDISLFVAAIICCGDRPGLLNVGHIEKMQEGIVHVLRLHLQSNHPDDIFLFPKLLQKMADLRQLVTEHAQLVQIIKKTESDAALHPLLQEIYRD
Description: (§4) A luciferase reporter gene was transfected to 3T3-L1 cells together with the ligand-binding domain of PPAR-alpha, PPAR-gamma or PPAR-delta fused to a yeast GAL4 DNA-binding domain.

PPAR-gamma = test: Luciferase reporter with PPAR-gamma ligand-binding domain fused to yeast GAL4 DNA-binding domain in 3T3-L1 cells; format: cell-based
Description: as §4

T1 sequence (Q8VDQ1 whole entry): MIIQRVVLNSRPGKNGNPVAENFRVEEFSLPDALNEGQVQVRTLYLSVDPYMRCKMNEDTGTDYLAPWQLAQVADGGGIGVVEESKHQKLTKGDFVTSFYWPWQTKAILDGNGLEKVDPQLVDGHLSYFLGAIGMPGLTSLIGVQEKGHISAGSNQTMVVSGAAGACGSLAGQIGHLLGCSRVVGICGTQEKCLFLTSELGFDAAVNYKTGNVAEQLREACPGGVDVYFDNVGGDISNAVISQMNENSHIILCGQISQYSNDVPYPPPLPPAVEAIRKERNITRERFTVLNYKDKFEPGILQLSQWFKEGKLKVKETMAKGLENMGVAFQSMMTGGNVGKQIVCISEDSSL

Compound | specific activity with PGR-2 (substrate specificity) [1] | endogenous PPAR activity (reporter gene) (endogenous PPAR) | other results
CCCCC[C@H](O)/C=C/[C@@H]1[C@@H](C/C=C\CCCC(=O)O)[C@H](O)C[C@H]1O [PGF2β] | no specific activity was detected | – | –
CCCCCC(=O)/C=C/[C@H]1[C@H](O)CC(=O)[C@@H]1C/C=C\CCCC(=O)O [15-keto PGE2] | – | enhanced endogenous PPAR activity significantly | IRS-1 protein expression (3T3-L1 cells [2]): did not increase; PPAR-gamma1 and PPAR-gamma2 protein expression (3T3-L1 cells [2]; added with MIX, insulin and dexamethasone): significantly enhanced; expression of aP2, an adipocyte-specific marker (3T3-L1 cells [2]; even in the absence of MIX): strongly induced; IRS-2 expression (3T3-L1 cells [2]; in the presence of insulin and dexamethasone): enhanced the expression to a level similar to MIX; adipogenesis (aggregates of lipid droplets, oil-red O) (3T3-L1 cells [3]): effectively enhanced adipogenesis at a level similar to BRL49653; efficiency of PGR-2 catalyzed conversion (rank order) [4]: most efficiently; activation of PPAR-alpha (GAL4 fusion, luciferase reporter) (PPAR-alpha): to a lesser degree; activation of PPAR-gamma (GAL4 fusion, luciferase reporter) (PPAR-gamma): activated
CC(C)Cn1c(=O)n(C)c(=O)c2[nH]cnc21 [MIX, methylisobutylxanthine] | – | – | IRS-1 protein expression (3T3-L1 cells [2]): induced IRS-1 expression
CCCCC[C@H](O)/C=C/[C@@H]1[C@@H](C/C=C\CCCC(=O)O)[C@@H](O)C[C@@H]1O [11b-PGF2α] | no specific activity was detected | – | –
CCCCCC(=O)CC[C@H]1[C@H](O)CC(=O)[C@@H]1C/C=C\CCCC(=O)O [13,14-dihydro-15-keto PGE2] | no specific activity was detected | failed to increase PPAR activity | –
CCCCC[C@H](O)/C=C/[C@@H]1[C@@H](CC(=O)CCCCC(=O)O)[C@@H](O)C[C@H]1O [6-keto PGF1α] | no specific activity was detected | – | –
CCCCC/C=C\C[C@@H](O)/C=C/C=C/C=C\[C@@H](O)CCCC(=O)O [leukotriene B4] | no specific activity was detected | – | –
CCCCCC(=O)CC[C@@H]1[C@@H](C/C=C\CCCC(=O)O)[C@@H](O)C[C@H]1O [13,14-dihydro-15-keto PGF2α] | no specific activity was detected | failed to increase PPAR activity | –
CCCCCC(=O)/C=C/[C@@H]1[C@@H](CCCCCCC(=O)O)[C@@H](O)C[C@H]1O [15-keto PGF1α] | reacted specifically with PGR-2 | – | –
CCCCCC(=O)/C=C/[C@H]1[C@H](O)CC(=O)[C@@H]1CCCCCCC(=O)O [15-keto PGE1] | reacted specifically with PGR-2 | – | –
CCCCCC(=O)CCC1C(=O)CC(O)C1C/C=C\CCCC(=O)O (stereo not shown) [13,14-dihydro-15-keto PGD2] | no specific activity was detected | – | –
CCCCCC(=O)/C=C/[C@@H]1[C@@H](C/C=C\CCCC(=O)O)[C@@H](O)C[C@H]1O [15-keto PGF2α] | reacted specifically with PGR-2 | enhanced endogenous PPAR activity significantly | activation of PPAR-alpha (GAL4 fusion, luciferase reporter) (PPAR-alpha): to a lesser degree; activation of PPAR-gamma (GAL4 fusion, luciferase reporter) (PPAR-gamma): activated
